Data published in patent publication US10472341B2, “Bicyclic tetrahydrothiazepine derivatives useful for the treatment of neoplastic and/or infectious diseases” (APEIRON BIOLOGICS AG, priority 2015, dated 2019).
Where a name gives a salt, the structure may show the parent alone. Read-outs that look alike come from different tables or passages of the source.

Test system: aCD3/aCD28-stimulated human PBMCs
Assay: Cytokine production in aCD3/aCD28 stimulated human PBMCs
Assay type: cell-based
Details: PBMC, 18 h
Procedure: In order to determine the immune modulatory effect of compounds of compounds of the present invention in human PBMCs, compounds were assessed in the following assay set-up:
Buffy coats were obtained from a local hospital, diluted 3 fold with PBS and layered onto an isotonic Ficoll separating solution d=1.077 g/mL in 50 mL centrifuge tubes. The tubes were centrifuged at 914 g for 25 min at room temperature with the brakes off. The PBMC layer was removed and washed twice with ice-cold PBS. Erythrocytes were lysed by addition of ddH2O and cells were resuspended in X-Vivo15 (Lonza).
1e6 cells/mL were stimulated with soluble anti CD3/CD28 antibodies (1 μg/mL both, clones OKT3 and 28.2) in the presence of described compounds. Cells were incubated for 18 h at 37° C., 5% CO2. Assay plates were centrifuged at 400 g for 5 min and supernatants harvested. Cytokine concentration in tissue culture supernatants were determined with MSD or HTRF kits (MSD and Cisbio), according to manufacturer's instructions.

[1] = enhancement of IFN-γ production, read-out: Activity Class IFN-γ
[2] = enhancement of IL-2 production, read-out: Activity Class IL-2

| Structure (SMILES) | EC50 [1] | EC50 [2] |
| --- | --- | --- |
| COCCNC(=O)c1ccc2c(c1)N(Cc1ccc(Cl)cc1)C(=O)[C@@H](N)CS2 [Example 20, (3R)-3-amino-5-[(4-chlorophenyl)methyl]-N-(2-methoxyethyl)-4-oxo-2,3,4,5-tetrahydro-1,5-benzothiazepine-7-carboxamide hydrochloride] | 1.58 to 5.01 µM | > 5.01 µM |
| CC(C)NC(=O)c1ccc2c(c1)N(Cc1ccc(Cl)cc1)C(=O)[C@@H](N)CS2 [Example 61, (3R)-3-amino-5-[(4-chlorophenyl)methyl]-4-oxo-N-(propan-2-yl)-2,3,4,5-tetrahydro-1,5-benzothiazepine-7-carboxamide hydrochloride] | 1.58 to 5.01 µM | > 5.01 µM |
| CN(C)c1cc2c(cc1C(=O)NCc1ccccc1)N(Cc1ccc(Cl)cc1)C(=O)[C@@H](N)CS2(=O)=O [Example 116, (3R)-3-amino-N-benzyl-5-[(4-chlorophenyl)methyl]-8-(dimethylamino)-1,1,4-trioxo-2,3,4,5-tetrahydro-1λ^6,5-benzothiazepine-7-carboxamide hydrochloride] | 1.58 to 5.01 µM | > 5.01 µM |
| COc1ccc(CN2C(=O)[C@@H](N)CS(=O)(=O)c3cc(F)c(C(=O)NC4CC4(F)F)cc32)cc1C(F)(F)F (stereo partly drawn) [Example 117, (3R)-3-amino-N-(2,2-difluorocyclopropyl)-8-fluoro-5-{[4-methoxy-3-(trifluoromethyl)phenyl]methyl}-1,1,4-trioxo-2,3,4,5-tetrahydro-1λ^6,5-benzothiazepine-7-carboxamide hydrochloride] | < 1.58 µM | > 5.01 µM |
| C[C@@H]1[C@H](N)C(=O)N(Cc2ccc(Cl)cc2)c2cc(C(=O)NCCCC(F)(F)F)c(F)cc2S1(=O)=O [Example 118, (2R,3R)-3-amino-5-[(4-chlorophenyl)methyl]-8-fluoro-2-methyl-1,1,4-trioxo-N-(4,4,4-trifluorobutyl)-2,3,4,5-tetrahydro-1λ^6,5-benzothiazepine-7-carboxamide hydrochloride] | < 1.58 µM | 1.58 to 5.01 µM |
| Cc1nc(-c2ccc(CN3C(=O)[C@@H](N)CS(=O)(=O)c4ccc(C(=O)NCCCC(F)(F)F)cc43)cc2)no1 [Example 119, (3R)-3-amino-5-{[4-(5-methyl-1,2,4-oxadiazol-3-yl)phenyl]methyl}-1,1,4-trioxo-N-(4,4,4-trifluorobutyl)-2,3,4,5-tetrahydro-1λ^6,5-benzothiazepine-7-carboxamide hydrochloride] | 1.58 to 5.01 µM | > 5.01 µM |
| COCCNC(=O)c1cc2c(cc1F)S(=O)(=O)C[C@H](N)C(=O)N2Cc1ccc(Cl)cc1 [Example 120, (3R)-3-amino-5-[(4-chlorophenyl)methyl]-8-fluoro-N-(2-methoxyethyl)-1,1,4-trioxo-2,3,4,5-tetrahydro-1λ^6,5-benzothiazepine-7-carboxamide hydrochloride] | > 5.01 µM | > 5.01 µM |
| Cc1nc(-c2ccc(CN3C(=O)[C@@H](N)CS(=O)(=O)c4ccc(C(=O)NC5CC5(F)F)cc43)cc2)no1 (stereo partly drawn) [Example 121, (3R)-3-amino-N-(2,2-difluorocyclopropyl)-5-{[4-(5-methyl-1,2,4-oxadiazol-3-yl)phenyl]methyl}-1,1,4-trioxo-2,3,4,5-tetrahydro-1λ^6,5-benzothiazepine-7-carboxamide hydrochloride] | > 5.01 µM | > 5.01 µM |
| N[C@H]1CS(=O)(=O)c2cc(F)c(C(=O)NCc3ccc(F)cc3)cc2N(Cc2nnc(C3CC3)s2)C1=O [Example 138, (3R)-3-amino-5-[(5-cyclopropyl-1,3,4-thiadiazol-2-yl)methyl]-8-fluoro-N-[(4-fluorophenyl)methyl]-1,1,4-trioxo-2,3,4,5-tetrahydro-1λ^6,5-benzothiazepine-7-carboxamide hydrochloride] | 1.58 to 5.01 µM | > 5.01 µM |
| N[C@H]1CS(=O)(=O)c2cc(F)c(C(=O)NC3CCOCC3)cc2N(Cc2ccc(Cl)cc2)C1=O [Example 144, (3R)-3-amino-5-[(4-chlorophenyl)methyl]-8-fluoro-N-(oxan-4-yl)-1,1,4-trioxo-2,3,4,5-tetrahydro-1λ^6,5-benzothiazepine-7-carboxamide] | 1.58 to 5.01 µM | > 5.01 µM |
| N[C@H]1CS(=O)(=O)c2ccc(C(=O)N[C@@H]3C[C@@H]3F)cc2N(Cc2ccc(Cl)cc2)C1=O [Example 147, (3R)-3-amino-5-[(4-chlorophenyl)methyl]-N-[(1R,2S)-2-fluorocyclopropyl]-1,1,4-trioxo-2,3,4,5-tetrahydro-1λ^6,5-benzothiazepine-7-carboxamide] | > 5.01 µM | > 5.01 µM |
| N[C@H]1CS(=O)(=O)c2ccc(C(=O)NC3CC(F)(F)C3)cc2N(Cc2ccccc2F)C1=O [Example 148, (3R)-3-amino-N-(3,3-difluorocyclobutyl)-5-[(2-fluorophenyl)methyl]-1,1,4-trioxo-2,3,4,5-tetrahydro-1λ^6,5-benzothiazepine-7-carboxamide] | 1.58 to 5.01 µM | > 5.01 µM |
| COc1cccc(CN2C(=O)[C@@H](N)CS(=O)(=O)c3ccc(C(=O)NC4CC(F)(F)C4)cc32)c1 [Example 149, (3R)-3-amino-N-(3,3-difluorocyclobutyl)-5-[(3-methoxyphenyl)methyl]-1,1,4-trioxo-2,3,4,5-tetrahydro-1λ^6,5-benzothiazepine-7-carboxamide] | > 5.01 µM | > 5.01 µM |
| N[C@H]1CS(=O)(=O)c2ccc(C(=O)N[C@@H]3CCOC3)cc2N(Cc2ccc(Cl)cc2)C1=O [Example 156, (3R)-3-amino-5-[(4-chlorophenyl)methyl]-1,1,4-trioxo-N-[(3R)-oxolan-3-yl]-2,3,4,5-tetrahydro-1λ^6,5-benzothiazepine-7-carboxamide] | > 5.01 µM | > 5.01 µM |
| N[C@H]1CS(=O)(=O)c2ccc(C(=O)NCC3CCOC3)cc2N(Cc2ccc(Cl)cc2)C1=O (stereo partly drawn) [Example 157, (3R)-3-amino-5-[(4-chlorophenyl)methyl]-1,1,4-trioxo-N-[(oxolan-3-yl)methyl]-2,3,4,5-tetrahydro-1λ^6,5-benzothiazepine-7-carboxamide] | > 5.01 µM | > 5.01 µM |
| COc1ccc(CN2C(=O)[C@@H](N)CS(=O)(=O)c3ccc(C(=O)N[C@@H]4CC4(F)F)cc32)cc1 [Example 161, (3R)-3-amino-N-[(1R)-2,2-difluorocyclopropyl]-5-[(4-methoxyphenyl)methyl]-1,1,4-trioxo-2,3,4,5-tetrahydro-1λ^6,5-benzothiazepine-7-carboxamide] | > 5.01 µM | > 5.01 µM |
| N[C@H]1CS(=O)(=O)c2ccc(C(=O)NCCCC(F)(F)F)cc2N(Cc2ccccc2)C1=O [Example 162, (3R)-3-amino-5-benzyl-1,1,4-trioxo-N-(4,4,4-trifluorobutyl)-2,3,4,5-tetrahydro-1λ^6,5-benzothiazepine-7-carboxamide] | > 5.01 µM | > 5.01 µM |
| N[C@H]1CS(=O)(=O)c2ccc(C(=O)NCC3CCOCC3)cc2N(Cc2ccc(OC(F)F)cc2)C1=O [Example 164, (3R)-3-amino-5-{[4-(difluoromethoxy)phenyl]methyl}-N-[(oxan-4-yl)methyl]-1,1,4-trioxo-2,3,4,5-tetrahydro-1λ^6,5-benzothiazepine-7-carboxamide] | > 5.01 µM | > 5.01 µM |
| C[C@@H](NC(=O)c1ccc2c(c1)N(Cc1ccc(Cl)cc1)C(=O)[C@@H](N)CS2(=O)=O)C1CCOCC1 [Example 166, (3R)-3-amino-5-[(4-chlorophenyl)methyl]-N-[(1R)-1-(oxan-4-yl)ethyl]-1,1,4-trioxo-2,3,4,5-tetrahydro-1λ^6,5-benzothiazepine-7-carboxamide] | > 5.01 µM | > 5.01 µM |
| N[C@H]1CS(=O)(=O)c2ccc(C(=O)N[C@@H]3CC3(F)F)cc2N(Cc2ccccc2)C1=O [Example 167, (3R)-3-amino-5-benzyl-N-[(1R)-2,2-difluorocyclopropyl]-1,1,4-trioxo-2,3,4,5-tetrahydro-1λ^6,5-benzothiazepine-7-carboxamide] | > 5.01 µM | > 5.01 µM |
| Cc1ccc(CNC(=O)c2ccc3c(c2)N(Cc2ccc(Cl)cc2)C(=O)[C@@H](N)CS3(=O)=O)cn1 [Example 168, (3R)-3-amino-5-[(4-chlorophenyl)methyl]-N-[(6-methylpyridin-3-yl)methyl]-1,1,4-trioxo-2,3,4,5-tetrahydro-1λ^6,5-benzothiazepine-7-carboxamide] | 1.58 to 5.01 µM | > 5.01 µM |
| N#Cc1ccc(CN2C(=O)[C@@H](N)CS(=O)(=O)c3cc(F)c(C(=O)NCc4ccc(F)cc4)cc32)cc1 [Example 170, (3R)-3-amino-5-[(4-cyanophenyl)methyl]-8-fluoro-N-[(4-fluorophenyl)methyl]-1,1,4-trioxo-2,3,4,5-tetrahydro-1λ^6,5-benzothiazepine-7-carboxamide] | < 1.58 µM | < 1.58 µM |
| COCCOCCNC(=O)c1cc2c(cc1F)S(=O)(=O)C[C@H](N)C(=O)N2Cc1ccc(Cl)cc1 [Example 172, (3R)-3-amino-5-[(4-chlorophenyl)methyl]-8-fluoro-N-[2-(2-methoxyethoxy)ethyl]-1,1,4-trioxo-2,3,4,5-tetrahydro-1λ^6,5-benzothiazepine-7-carboxamide] | 1.58 to 5.01 µM | > 5.01 µM |
| C#CCCNC(=O)c1cc2c(cc1F)S(=O)(=O)C[C@H](N)C(=O)N2Cc1ccc(Cl)cc1 [Example 173, (3R)-3-amino-N-(but-3-yn-1-yl)-5-[(4-chlorophenyl)methyl]-8-fluoro-1,1,4-trioxo-2,3,4,5-tetrahydro-1λ^6,5-benzothiazepine-7-carboxamide] | 1.58 to 5.01 µM | > 5.01 µM |
